Assay results published in patent US20250262192A1, “PROGNOSTIC PATHWAYS FOR HIGH RISK SEPSIS PATIENTS” (KONINKLIJKE PHILIPS N.V., priority 2021, published 2025).
Values joined by “and” are separate entries in the source; they are usually repeats but may differ in a detail not shown here. Equal entries are not always repeated. “Also recorded” adds a separate entry of the source.

How the values were obtained:
[1] = test system: AR signaling pathway; assay: THP-1 sepsis treatment model, qPCR-based STP activity score; assay type: cell-based; settings: for Effect on AR PAS in LPS-stimulated THP-1 monocytes: THP-1 monocyte sepsis treatment model (Table 11); for Average AR STP activity score: 24 hours
Procedure: (§1) In the treatment model the pathway inhibitor and LPS were added at the same time and the THP-1 cells were incubated for 24 hours prior to isolating RNA and determining pathway activities.
(§2) For the first application, THP-1 cells were pre-incubated for 24 hours with the drug of choice, and subsequently LPS was added for 24 hours. For the treatment application, the drug and LPS were added simultaneously to the cells for 24 hours. Importantly: Some drugs needs processing in the body to become effective, this is the case for some of the androgen receptor (AR) pathway inhibitors, such as bicalutamide. In this case we have also tested the active variant of the drug (in the case of bicalutamide: (R-)bicalutamide).
(§3) LPS is considered the main mediator of the sepsis symptoms. An in vitro experiment was designed where monocytes were stimulated with LPS and subsequently treated with a variety of inhibitors. Monocytes were chosen as they have been described to play a major role in sepsis, see for example Sukhacheva, [34], Clinical Laboratory Int. 26 Aug.
(§4) Sepsis treatment model: For the treatment application, the drug and LPS were added simultaneously to the cells for 24 hours. Compounds and concentrations are described in Table 11 and Table 12 for healthy volunteer PBMCs.
(§5) After stimulation cells were harvested and RNA was extracted using the RNeasy mini kit (Qiagen, 74104). qPCR-based STP activity scores were calculated using the Philips Research OncoSignal platform (www.philips.com/oncosignal), as described herein.
(§6) Two concentrations of LPS 0.5 and 5 ng/ml were used in the experiments, furthermore for the THP-1 cell line an higher passage number (px-53-55) and a lower passage number (px-13-15) were used (Table 11). the THP-1 cell line with the lower passage was more reactive towards LPS activation compared to the higher passage number (data not shown).

[2] = test system: TGFbeta signaling pathway; assay: as above; assay type: cell-based; settings: for Effect on TGFbeta PAS in LPS-stimulated THP-1 monocytes: THP-1 monocyte sepsis treatment model (Table 11); for Average TGFb STP activity score: 24 hours
Procedure: as §1, §2, §3, §4, §5, §6

[3] = test system: AR pathway; assay: PBMCs of healthy volunteers stimulated with LPS with or without drugs, pathway activity score; assay type: cell-based, human; settings: for Healthy volunteers showing AR PAS decrease: experiment 2, PBMCs, LPS 0.5 ng/ml + drug, Etanercept: not significantly; for AR PAS: PBMCs of individual healthy volunteers
Procedure: as §4
(§7) PBMC samples from healthy volunteers and sepsis patients were obtained via Tissue solutions. Briefly, cryopreserved PBMCs were first washed with washing buffer (PBS/1% BSA/2 mM EDTA), centrifuged and pellet resuspended in culture medium (RPM11640 without phenol red+8.5% charcoal stripped FBS+1% Glx+1% p/s). 0.5·10^5-1·10^6 cells were seeded per well in 24 wells plate and rested for 1 hour before treatment experiment. 10 PBMC samples from healthy donors were used to; (1) measure the baseline pathway levels, (2) activate with LPS
(§8) PBMCs of healthy volunteers were stimulated with 5 ng/ml LPS for 24 hours in combination with (R)-Bicalutamide and (R)-Bicalutamide+Vactosertib (experiment 1). In experiment 2, (R)-Bicalutamide and etanercept were tested with 0.5 ng/ml LPS (Table 12A for exp 1 and Table 12B for exp 2).

[4] = test system: TGFbeta pathway; assay: as above; assay type: cell-based, human; settings: for Healthy volunteers showing TGFbeta PAS decrease: experiment 2, PBMCs, LPS 0.5 ng/ml + drug, Etanercept: not significantly; for TGFbeta PAS: PBMCs of individual healthy volunteers
Procedure: as §4, §7, §8

[5] = test system: AR pathway; assay: PBMCs of sepsis patients treated in vitro 24 hours with inhibitors, pathway activity score; assay type: cell-based, human; set-up: AR Pathway activity scores of sepsis PBMC patients: scale not given here
Procedure: as §7
(§9) Sepsis treatment model: PBMC derived from sepsis patients (n=20) were treated 24 hours with compounds, DMSO or combination of compounds. (PBMC from healthy and sepsis patients are originating from the same hospital to minimize bias in sample prep). After stimulation cells were harvested and RNA was extracted using the RNeasy mini kit (Qiagen, 74104). qPCR was performed using the Philips Research OncoSignal platform.
(§10) In total 18 PBMCs sepsis samples were treated for 24 hours with selected inhibitors (and combinations), 6 patient samples per experiment.

[6] = test system: TGFbeta pathway; assay: as above; assay type: cell-based, human; set-up: scale not given here
Procedure: as §7, §9, §10

[7] = test system: AR pathway; assay: THP-1 cell line stimulated with LPS or DHT and inhibited with Bicalutamide or Enzalutamide (Table 9A); assay type: cell-based; settings: THP-1, stimulated 5 hours and subsequently inhibited
Procedure: (§11) LPS is considered the main mediator of the sepsis symptoms. An in vitro experiment was designed where monocytes were stimulated with LPS and subsequently treated with a variety of inhibitors. […] 26 Aug.
as §5

[8] = test system: TGFBeta pathway; assay: as above; assay type: cell-based; settings: THP-1, stimulated 5 hours and subsequently inhibited
Procedure: as §11, §5

[9] = test system: AR pathway; assay: MOLT-4 lymphoid cell line stimulated with LPS or DHT and inhibited with Bicalutamide or Enzalutamide (Table 9B); assay type: cell-based; settings: stimulated 5 hours and subsequently inhibited
Procedure: (§12) MOLT-4 (ATCC CRL-1582) were cultured in RPMI1640 media, supplemented with 10% FBS, 1% glutamax and 1% pen strep at 37° C. 5% CO2.
as §5

[10] = test system: TGFBeta pathway; assay: as above; assay type: cell-based; settings: MOLT-4, stimulated 5 hours and subsequently inhibited
Procedure: as §12, §5

[11] = test system: AR cellular signaling pathway; assay: THP-1 sepsis prevention model, qPCR-based STP activity score; assay type: cell-based
[12] = test system: TGFbeta cellular signaling pathway; assay: as above; assay type: cell-based
[13] = THP-1 px 13-15, LPS 0.5 ng/ml alone or with Etanercept 10 ug/ml
[14] = THP-1 px 13-15, LPS 0.5 ng/ml alone or with compound, Vactosertib 1 uM, Etanercept 1 ug/ml, R-bicalutamide 25 uM + Etanercept 0.1 ug/ml, R-bicalutamide 25 uM + Filgotinib 10 uM
[15] = experiment 2, LPS 0.5 ng/ml alone, + Etanercept 10 ug/ml, or + (R)-Bicalutamide 25 uM
[16] = EXP 1, individual patient samples, Vactosertib 1 uM, Vactosertib 1 uM + R-bicalutamide 25 uM, Etanercept 10 ug/ml, R-bicalutamide 25 uM
[17] = THP-1 px 13-15, LPS 0.5 ng/ml alone or with compound, (R)-Bicalutamide 25 uM, N-desmethyl Enzalutamide 2 uM, N-Desmethyl-Apalutamide 3 uM
[18] = THP-1 px 13-15, LPS 5 ng/ml alone or with Resatorvid 10 uM
[19] = EXP 2, individual patient samples, Resatorvid 10 uM, D4-abiraterone 10 uM, A-485 100 nM, Galunisertib 10 uM
[20] = THP-1 px 53-55, LPS 0.5 ng/ml alone or with compound, (R)-Bicalutamide 25 uM, Ketodarolutamide 10 uM, D4-abiraterone 10 uM
[21] = experiment 1, PBMCs, LPS 5 ng/ml + drug
[22] = experiment 1, LPS 5 ng/ml 24 hours alone, + (R)-Bicalutamide 25 uM, or + (R)-Bicalutamide 25 uM + Vactosertib 1 uM
[23] = DHT (25 nM) alone or + Bicalutamide (5 uM) or Enzalutamide (5 uM)
[24] = LPS (50 ng/mL) alone or + Bicalutamide (5 uM) or Enzalutamide (5 uM)
[25] = 24 hrs Vactosertib or DMSO, then 24 hrs LPS
[26] = 24 hrs Vactosertib, then 24 hrs PBS

Etanercept
Effect on AR PAS in LPS-stimulated THP-1 monocytes [1]: could reduce; also recorded: could be lowered | Average AR STP activity score [1, 13]: 6.33 normalized scores | Average AR STP activity score [1, 14]: 5.00 normalized scores and 6.00 normalized scores | Effect on TGFbeta PAS in LPS-stimulated THP-1 monocytes [2]: could lower; also recorded: could be lowered | Average TGFb STP activity score [2, 13]: 11.33 normalized scores | Average TGFb STP activity score [2, 14]: 9.67 normalized scores and 11.67 normalized scores | Healthy volunteers showing AR PAS decrease [3]: 2 out of 4 | AR PAS [3, 15]: 21 and 31 (2×) and 18 | Healthy volunteers showing TGFbeta PAS decrease [4]: 3 out of 4 | TGFbeta PAS [4, 15]: 29 and 34 and 31 (2×) | AR Pathway activity scores of sepsis PBMC patients [5, 16]: 28 and 20 | TGFbeta Pathway activity scores of sepsis PBMC patients [6, 16]: 42 and 30 and 31

CC1(C)C(=O)N(c2ccc(C#N)c(C(F)(F)F)c2)C(=S)N1c1ccc(C(N)=O)c(F)c1 [N-desmethyl Enzalutamide]
Effect on AR PAS in LPS-stimulated THP-1 monocytes [1]: could reduce | Average AR STP activity score [1, 17]: 6.67 normalized scores | Average TGFb STP activity score [2, 17]: 13.33 normalized scores

CCOC(=O)C1=CCCC[C@H]1S(=O)(=O)Nc1ccc(F)cc1Cl [Resatorvid]
Effect on AR PAS in LPS-stimulated THP-1 monocytes [1]: could reduce; also recorded: could be lowered | Average AR STP activity score [1, 18]: 3.67 normalized scores | Effect on TGFbeta PAS in LPS-stimulated THP-1 monocytes [2]: could lower; also recorded: could be lowered | Average TGFb STP activity score [2, 18]: 8.00 normalized scores | AR Pathway activity scores of sepsis PBMC patients [5, 19]: 24 and 31 | TGFbeta Pathway activity scores of sepsis PBMC patients [6, 19]: 31 and 37 and 35 and 34

O=C(Nc1nc2cccc(-c3ccc(CN4CCS(=O)(=O)CC4)cc3)n2n1)C1CC1 [Filgotinib]
Effect on TGFbeta PAS in LPS-stimulated THP-1 monocytes [2]: could lower

C[C@](O)(CS(=O)(=O)c1ccc(F)cc1)C(=O)Nc1ccc(C#N)c(C(F)(F)F)c1 [(R)-Bicalutamide]
Effect on AR PAS in LPS-stimulated THP-1 monocytes [1]: could reduce | Average AR STP activity score [1, 17]: 6.67 normalized scores | Average AR STP activity score [1, 20]: 1.67 normalized scores | Effect on TGFbeta PAS in LPS-stimulated THP-1 monocytes [2]: could lower | Average TGFb STP activity score [2, 17]: 14.00 normalized scores | Average TGFb STP activity score [2, 20]: 11.67 normalized scores | Healthy volunteers showing AR decrease [3, 21]: 3 out of 6 | AR PAS [3, 22]: 29 and 26 (2×) and 30 and 25 and 21 | Healthy volunteers showing AR PAS decrease [3]: 3 out of 4 | AR PAS [3, 15]: 26 and 28 and 30 and 24 | Healthy volunteers showing TGFbeta decrease [4, 21]: 3 out of 6 | TGFbeta PAS [4, 22]: 29 and 32 and 35 and 31 and 27 and 40 | Healthy volunteers showing TGFbeta PAS decrease [4]: 3 out of 4 | TGFbeta PAS [4, 15]: 31 and 35 and 33 and 32 | AR Pathway activity scores of sepsis PBMC patients [5, 16]: 21 | TGFbeta Pathway activity scores of sepsis PBMC patients [6, 16]: 31 and 32

CC(=O)c1cc(C(=O)N[C@@H](C)Cn2ccc(-c3ccc(C#N)c(Cl)c3)n2)[nH]n1 [Ketodarolutamide]
Effect on AR PAS in LPS-stimulated THP-1 monocytes [1]: could reduce | Average AR STP activity score [1, 20]: 2.33 normalized scores | Average TGFb STP activity score [2, 20]: 12.00 normalized scores

CNC(=O)c1ccc(N2C(=S)N(c3ccc(C#N)c(C(F)(F)F)c3)C(=O)C2(C)C)cc1F [Enzalutamide]
AR STP activity [7, 23]: 6.0 normalized scores | AR STP activity [7, 24]: 20.4 normalized scores | TGFbeta STP activity [8, 23]: 17.3 normalized scores | TGFbeta STP activity [8, 24]: 33.6 normalized scores | AR STP activity [9, 23]: 7.3 normalized scores | AR STP activity [9, 24]: 6.3 normalized scores | TGFbeta STP activity [10, 23]: 14.1 normalized scores | TGFbeta STP activity [10, 24]: 14.1 normalized scores

Cc1cccc(-c2[nH]c(CNc3ccccc3F)nc2-c2ccc3ncnn3c2)n1 [Vactosertib]
Average PAS AR [11, 25]: 17.1 normalized scores | Average PAS AR [11, 26]: 3.8 normalized scores | Effect on the AR signaling pathway ([11]; Vactosertib pretreatment followed by LPS): No effect | Average PAS TGFbeta [12, 25]: 9.3 normalized scores | Average PAS TGFbeta [12, 26]: 1.7 normalized scores | Average AR STP activity score [1, 14]: 8.67 normalized scores | Average TGFb STP activity score [2, 14]: 12.00 normalized scores | AR Pathway activity scores of sepsis PBMC patients [5, 16]: 21 and 22 | Patients showing reduction in the AR pathway (not significant) ([5]; sepsis patient PBMCs, Etanercept 10 ug/ml in combination): 2/3 | TGFbeta Pathway activity scores of sepsis PBMC patients [6, 16]: 31

C[C@]12CCC(=O)C=C1CC[C@@H]1[C@@H]2CC[C@]2(C)C(c3cccnc3)=CC[C@@H]12 [D4-abiraterone]
Effect on AR PAS in LPS-stimulated THP-1 monocytes [1]: could reduce | Average AR STP activity score [1, 20]: 2.67 normalized scores | Effect on TGFbeta PAS in LPS-stimulated THP-1 monocytes [2]: could lower | Average TGFb STP activity score [2, 20]: 11.67 normalized scores | AR Pathway activity scores of sepsis PBMC patients [5, 19]: 24 (3×) and 33 | TGFbeta Pathway activity scores of sepsis PBMC patients [6, 19]: 32 and 41 and 36 and 40

Cc1cccc(-c2nn3c(c2-c2ccnc4ccc(C(N)=O)cc24)CCC3)n1 [Galunisertib]
AR Pathway activity scores of sepsis PBMC patients [5, 19]: 23

N#Cc1ncc(N2C(=O)C3(CCC3)N(c3ccc(C(N)=O)c(F)c3)C2=S)cc1C(F)(F)F [N-Desmethyl-Apalutamide]
Effect on AR PAS in LPS-stimulated THP-1 monocytes [1]: could reduce | Average AR STP activity score [1, 17]: 7.33 normalized scores | Average TGFb STP activity score [2, 17]: 13.33 normalized scores
